Tests used:
[1] = Solubility of active ingredient in hydrocarbon at 0° C.; assay type: physicochemical
[2] = Behaviour of active ingredient on storage at 0° C.; assay type: physicochemical; conditions: stored at 0° C. for a long time

CC(COc1ccc(Oc2ccccc2)cc1)Oc1ccccn1 (stereo not drawn) [active ingredient (h), 2-{1-Methyl-2-(4-phenoxyphenoxy)ethoxy}pyridine]
solubility in the hydrocarbon (6) ([1]; hydrocarbon (6)): 10 wt. %

CC1(C)C(C=C(Cl)Cl)C1C(=O)OCc1cccc(Oc2ccccc2)c1 (stereo not drawn) [active ingredient (d), 3-Phenoxybenzyl 3-(2,2-dichlorovinyl)-2,2-dimethylcyclopropanecarboxylate]
solubility in the hydrocarbon (4) ([1]; hydrocarbon (4)): ≥ 50 wt. %

CCC(C)c1ccccc1OC(=O)NC (stereo not drawn) [active ingredient (a), 2-Sec-butylphenyl N--methylcarbamate]
solubility in the hydrocarbon (5) ([1]; hydrocarbon (5)): ≥ 50 wt. %

CC(C)C(C(=O)OC(C#N)c1cccc(Oc2ccccc2)c1)c1ccc(Cl)cc1 (stereo not drawn) [active ingredient (f), α-Cyano-3-phenoxybenzyl 2-(4-chlorophenyl)-3-methylbutyrate]
solubility in the hydrocarbon (3) [1]: ≥ 50 wt. %

CC1(C)C(C(=O)OC(C#N)c2cccc(Oc3ccccc3)c2)C1(C)C (stereo not drawn) [active ingredient (e), α-Cyano-3-phenoxybenzyl 2,2,3,3-tetramethylcyclopropanecarboxylate]
solubility in the hydrocarbon (3) [1]: ≥ 50 wt. %

CC1(C)C(C=C(Cl)Cl)C1C(=O)OC(C#N)c1cccc(Oc2ccccc2)c1 (stereo not drawn) [active ingredient (b), α-Cyano-3-phenoxybenzyl 3-(2,2-dichlorovinyl)-2,2-dimethylcyclopropanecarboxylate]
crystallization of the active ingredient on storage [2]: crystallizes in part

Source: patent publication US4871766A, “Oil-in-water pesticidal emulsion” (priority 1986, dated 1989)
